Common to all, as to format: cell-based
The subject of one series is Vero cells. The series can be described thus: in vitro. Particulars: African green monkey. Here is the method: (§1) In parallel, the toxicity of the compounds was assessed on the same plates. Once the read-out for the eGFP signal was done, 10 μL of resazurin, a cell viability stain, was added to all wells of the 384-well plates. The resazurin assay is based on the reduction of the blue resazurin by NADH, produced by the cells, into the highly fluorescent product, resorufin. The formation of pink fluorescent resorufin is directly related to the number of viable cells in the well. The plates were incubated for an additional 5 hours in a fully humidified incubator (37° C., 5% CO2). Next, the plates were measured on an Infinite reader (Tecan) using an excitation wavelength of 530 nm. The half maximal cytotoxic concentration (CO50) was also determined, defined as the concentration required to reduce the resazurin conversion by 50% compared to that of the cell control wells (Table 1). Finally, the selectivity index (SI) was determined for the compounds, which was calculated as followed: SI=CC50/EC50.

Another series deals with DENV-1 strain TC974#666. The series can be described thus: Tetravalent RT-qPCR assay Protocol A, serotype 1. Particulars: Dengue virus, DENV1, 72 h, RT-qPCR serotype 1 TC974#666, Vero cells, day 3. As to the method:
(§2) The antiviral activity of the compounds of the invention was tested against DENV-1 strain TC974#666 (NCPV), DENV-2 strain 16681, DENV-3 strain H87 (NCPV) and DENV-4 strains H241 (NCPV) and EDEN (SG/06K2270DK1/2005; GenBank accession number QG398256) in a RT-qPCR assay. Therefore, Vero cells were infected with either DENV-1, or -2, or -3, or -4 in the presence or absence of test compounds. At day 3 post-infection, the cells were lysed and cell lysates were used to prepare cDNA of both a viral target (the 3′UTR of DENV; table 2) and a cellular reference gene (β-actin, table 2). Subsequently, a duplex real time PCR was performed on a Lightcycler480 instrument. The generated Cp value is inversely proportional to the amount of RNA expression of these targets. Inhibition of DENV replication by a test compound result in a shift of Cp's for the 3′UTR gene. On the other hand, if a test compound is toxic to the cells, a similar effect on β-actin expression will be observed. The comparative ΔΔCp method is used to calculate EC50, which is based on the relative gene expression of the target gene (3′UTR) normalized with the cellular housekeeping gene (β-actin). In addition, CC50 values were determined based on the Cp values acquired for the housekeeping gene β-actin.
(§3) The culture medium consisted of minimal essential medium supplemented with 2% of heat-inactivated fetal calf serum, 0.04% gentamycin (50 mg/mL) and 2 mM of L-glutamine. Vero cells, obtained from ECACC, were suspended in culture medium and 75 μL/well was added in 96-well plates (10000 cells/well), which already contain the antiviral compounds. Typically, these plates contain a 4-fold serial dilution of 9 dilution steps of the test compound at 200 times the final concentration in 100% DMSO (500 nL; final concentration range: 25 μM-0.00038 μM). In addition, each plate contains wells which are assigned as virus controls (containing cells and virus in the absence of compound) and cell controls (containing cells in the absence of virus and compound). Once the cells were added in the plates, the plates were incubated in a fully humidified incubator (37° C., 5% CO2) until the next day. Then, DENV-1 strain TC974#666, DENV-2 strain 16681, DENV-3 strain H87 or DENV-4 strains H241 or EDEN were added. […] In parallel, 25 μL of culture medium was added to the cell controls. Next, the plates were incubated for 3 days in a fully humidified incubator (37° C., 5% CO2). After 3 days, the supernatant was removed from the wells and the cells were washed twice with ice-cold PBS (˜100 μL). The cell pellets within the 96-well plates were stored at −80° C. for at least 1 day. Next, RNA was extracted using the Cells-to-CT™ lysis kit, according to the manufacture's guideline (Applied Biosystems). The cell lysates can be stored at −80° C. or immediately used in the reverse transcription step. In preparation of the reverse transcription step, mix A (table 3A) was prepared and 7.57 μL/well was dispensed in a 96-well plate. After addition of 5 μL of the cell lysates, a five minute denaturation step at 75° C. was performed (table 3B). Afterwards, 7.43 μL of mix B was added (table 3C) and the reverse transcription step was initiated (table 3D) to generate cDNA.
(§4) Finally, a RT-qPCR mix was prepared, mix C (table 4A), dispensed in 96-well LightCycler qPCR plates to which 3 μL of cDNA was added and the qPCR was performed according to the conditions in table 4B on a LightCycler 480. Using the LightCycler software and an in-house LIMS system, dose response curves for each compound were calculated and the half maximal effective concentration (EC50) and the half maximal cytotoxic concentration (CO50) were determined (Tables 6-9).
(In general: Real-time PCR tracks product formation cycle by cycle.)

For another series, the system named is DENV-4 strain H241. The series can be described thus: Tetravalent RT-qPCR assay Protocol A, serotype 4 H241. Particulars: Dengue virus, DENV4, 72 h, RT-qPCR serotype 4 H241, Vero cells, day 3. As to the method:
as §2, §3, §4

Series [1] is described as follows: in vitro. Particulars: African green monkey. As to the method: as §2, §3, §4
A further series relates to uninfected Vero cells. The series can be described thus: in vitro. Particulars: African green monkey. As to the method: Potential cytotoxic effects of the compounds were evaluated in uninfected Vero cells. Cells were seeded at 4×10^4 cells/well in a 96-well plate in the presence of two-, three- or five-fold serial dilutions (ranging from 50 μg/mL-0.0038 μg/mL, 50 μg/mL-0.0076 μg/mL, and 50 μg/mL-0.00013 μg/mL, respectively) of compound and incubated for 4 to 7 days. Culture medium was discarded and 100 μL 3-(4,5-dimethylthiazol-2-yl)-5-(3-carboxymethoxyphenyl)-2-(4-sulfophenyl)-2H-tetrazolium/phenazinemethosulfate (MTS/PMS; Promega, Leiden, The Netherlands) in PBS was added to each well. Following a 2-hour incubation period at 37° C., the optical density was determined at 498 nm. Cytotoxic activity was calculated using the following formula: % cell viability=100×(ODCompound/ODCC), where ODcompound and ODCC correspond to the optical density at 498 nm of the uninfected cell cultures treated with compound and that of uninfected, untreated cell cultures, respectively. The 50% cytotoxic concentration (i.e., the concentration that reduces the total cell number with 50%; CC50) was calculated using linear interpolation (Tables 7 and 8).

Series [2] is described as follows: in vitro. The note with it: African green monkey, CC50. Here is the method:
as §1

Bounds are passed on as bounds.

The term CC50 denotes the concentration giving 50% cytotoxicity. As a reminder, the EC50 is the midpoint of the concentration-response curve.

With `COc1cc(NC(C(=O)c2c[nH]c3cc(F)ccc23)c2ccc(F)cc2OC)cc(OCCO)c1` (single isomer, unassigned) [Compound 1A, 1-(6-fluoro-1H-indol-3-yl)-2-(4-fluoro-2-methoxyphenyl)-2-((3-(2-hydroxyethoxy)-5-methoxyphenyl)amino)ethanone], the CC50 in the series on Vero cells turned out to be 8.4 µM. The concentration for a half-maximal effect (EC50) was found to be 0.018 µM in the series with DENV-1 strain TC974#666 and 0.48 µM in the series with DENV-4 strain H241.

With `COc1cc(NC(C(=O)c2c[nH]c3c(C)c(F)ccc23)c2ccc(F)cc2OC)cc(OCCO)c1` (single isomer, unassigned) [Compound 2B, 2-(4-fluoro-2-methoxyphenyl)-1-(6-fluoro-7-methyl-1H-indol-3-yl)-2-((3-(2-hydroxyethoxy)-5-methoxyphenyl)amino)ethanone], the results for the half-maximal cytotoxic concentration (CC50) in the series on Vero cells and with uninfected Vero cells were 5.3 µM and 15 µM, respectively. Besides, the figures for the EC50 in the series with DENV-1 strain TC974#666 and in the series with DENV-4 strain H241 were 0.013 µM and 0.32 µM, respectively. In addition, in “in vitro [1]”, half-maximal cytotoxicity (CC50 at 3 days) was put at 3.6 µM.

As to `COc1cc(NC(C(=O)c2c[nH]c3c(C)c(Cl)ccc23)c2ccc(F)cc2OC)cc(OCCO)c1` (single isomer, unassigned) [Compound 3A, 1-(6-chloro-7-methyl-1H-indol-3-yl)-2-(4-fluoro-2-methoxyphenyl)-2-((3-(2-hydroxyethoxy)-5-methoxyphenyl)amino)ethanone], the EC50 in the series on DENV-1 strain TC974#666 worked out at 0.016 µM; in the series with DENV-4 strain H241, 0.24 µM. Besides, the half-maximal cytotoxic concentration (CC50) at 3 days in “in vitro [1]” amounted to 4.1 µM. This compound came in with a CC50 in the series with uninfected Vero cells of 13 µM.

For the compound `COc1cc(NC(C(=O)c2c[nH]c3cc(Cl)ccc23)c2ccc(F)cc2OC)cc(OCCO)c1` (single isomer, unassigned) [Compound 4A, 1-(6-chloro-1H-indol-3-yl)-2-(4-fluoro-2-methoxyphenyl)-2-((3-(2-hydroxyethoxy)-5-methoxyphenyl)amino)ethanone], the CC50 worked out at 5.9 µM in the series with Vero cells and 18 µM in the series on uninfected Vero cells. The concentration for a half-maximal effect (EC50) in the series with DENV-1 strain TC974#666 amounted to 0.02 µM; with DENV-4 strain H241, 0.4 µM.

As for `COc1cc(NC(C(=O)c2c[nH]c3c(F)c(F)ccc23)c2ccc(F)cc2OC)cc(OCCO)c1` (single isomer, unassigned) [Compound 5B, 1-(6,7-difluoro-1H-indol-3-yl)-2-(4-fluoro-2-methoxyphenyl)-2-((3-(2-hydroxyethoxy)-5-methoxyphenyl)amino)ethanone], the CC50 with Vero cells was determined as 6.5 µM; in the series with uninfected Vero cells it was 11 µM. Besides, the values for the EC50 in the series on DENV-1 strain TC974#666 and with DENV-4 strain H241 were 0.027 µM and 0.45 µM, respectively.

As to `COc1cc(NC(C(=O)c2c[nH]c3cc(OC)c(C)cc23)c2ccc(F)cc2OC)cc(OCCO)c1` (single isomer, unassigned) [Compound 6A, 2-(4-fluoro-2-methoxyphenyl)-2-((3-(2-hydroxyethoxy)-5-methoxyphenyl)amino)-1-(6-methoxy-5-methyl-1H-indol-3-yl)ethanone], the CC50 stood at 7.5 µM in “in vitro [2]” and 17 µM in the series with uninfected Vero cells. Further, the figures for the concentration for a half-maximal effect (EC50) in the series with DENV-1 strain TC974#666 and with DENV-4 strain H241 were 0.016 µM and 0.2 µM, respectively.

In the case of `COc1cc(NC(C(=O)c2c[nH]c3cc(OC)c(F)cc23)c2ccc(F)cc2OC)cc(OCCO)c1` (single isomer, unassigned) [Compound 7A, 2-(4-fluoro-2-methoxyphenyl)-1-(5-fluoro-6-methoxy-1H-indol-3-yl)-2-((3-(2-hydroxyethoxy)-5-methoxyphenyl)amino)ethanone], the results for the cytotoxic concentration (CC50) in the series “in vitro [2]” and in the series with uninfected Vero cells were more than 8.6 µM and 18 µM, respectively. Also, the EC50 came to 0.029 µM in the series on DENV-1 strain TC974#666 and 0.47 µM in the series on DENV-4 strain H241. The same compound yielded a CC50 at 3 days in “in vitro [1]” of 3.8 µM.

Compound `COc1cc(NC(C(=O)c2c[nH]c3c(Cl)c(OC)ccc23)c2ccc(F)cc2OC)cc(OCCO)c1` (single isomer, unassigned) [Compound 8A, 1-(7-chloro-6-methoxy-1H-indol-3-yl)-2-(4-fluoro-2-methoxyphenyl)-2-((3-(2-hydroxyethoxy)-5-methoxyphenyl)amino)ethanone] had a CC50 with Vero cells of 8.6 µM. Besides, the 50% effective concentration (EC50) was 0.032 µM with DENV-1 strain TC974#666 and 0.52 µM in the series on DENV-4 strain H241. The compound further showed a CC50 at 3 days in the series “in vitro [1]” of 10 µM.

On to `COc1cc(NC(C(=O)c2c[nH]c3c(C)cc(F)cc23)c2ccc(F)cc2OC)cc(OCCO)c1` (single isomer, unassigned) [Compound 9B, 2-(4-fluoro-2-methoxyphenyl)-1-(5-fluoro-7-methyl-1H-indol-3-yl)-2-((3-(2-hydroxyethoxy)-5-methoxyphenyl)amino)ethanone], for which the CC50 in the series on Vero cells came to 5.5 µM; in the series with uninfected Vero cells, 14 µM. Moreover, the figures for the EC50 in the series with DENV-1 strain TC974#666 and in the series on DENV-4 strain H241 were 0.019 µM and 0.39 µM, respectively. For the same compound, the 50% cytotoxic concentration (CC50) at 3 days in “in vitro [1]” was determined as 3.8 µM.

For the compound `COc1cc(NC(C(=O)c2c[nH]c3cc(F)c(F)cc23)c2ccc(F)cc2OC)cc(OCCO)c1` (single isomer, unassigned) [Compound 10B, 1-(5,6-difluoro-1H-indol-3-yl)-2-(4-fluoro-2-methoxy-phenyl)-2-((3-(2-hydroxyethoxy)-5-methoxyphenyl)amino)ethanone], the half-maximal cytotoxic concentration (CC50) with Vero cells was 6.9 µM; in the series on uninfected Vero cells, 11 µM. The concentration for a half-maximal effect (EC50) in the series with DENV-1 strain TC974#666 came to 0.016 µM; in the series on DENV-4 strain H241, 0.39 µM.

On to `COc1cc(NC(C(=O)c2c[nH]c3c(C)c(OC)ccc23)c2ccc(F)cc2OC)cc(OCCO)c1` (single isomer, unassigned) [Compound 11A, 2-(4-fluoro-2-methoxyphenyl)-2-((3-(2-hydroxyethoxy)-5-methoxyphenyl)amino)-1-(6-methoxy-7-methyl-1H-indol-3-yl)ethanone], for which the figures for the CC50 in the series on Vero cells and in the series with uninfected Vero cells were 8.9 µM and 12 µM, respectively. The EC50 in the series on DENV-1 strain TC974#666 is 0.02 µM; in the series with DENV-4 strain H241, 0.35 µM. The compound further came in with a cytotoxic concentration (CC50) at 3 days in “in vitro [1]” of 6.3 µM.

For the origin of these results see US10206902B2, “Mono- or di-substituted indoles as dengue viral replication inhibitors” (priority 2014, dated 2019).
